Assay results taken from ChEMBL document CHEMBL6109174, “The Prosperity and Adversity of M4 Muscarinic Acetylcholine Receptor Activators in the Treatment of Neuropsychiatric Disorders” (J Med Chem, 2025).

What follows are compounds tested against T1, Muscarinic acetylcholine receptor M4 (Homo sapiens, UniProt P08173) (assay: Agonist activity at human M4 receptor).
T1 sequence (P08173 whole entry): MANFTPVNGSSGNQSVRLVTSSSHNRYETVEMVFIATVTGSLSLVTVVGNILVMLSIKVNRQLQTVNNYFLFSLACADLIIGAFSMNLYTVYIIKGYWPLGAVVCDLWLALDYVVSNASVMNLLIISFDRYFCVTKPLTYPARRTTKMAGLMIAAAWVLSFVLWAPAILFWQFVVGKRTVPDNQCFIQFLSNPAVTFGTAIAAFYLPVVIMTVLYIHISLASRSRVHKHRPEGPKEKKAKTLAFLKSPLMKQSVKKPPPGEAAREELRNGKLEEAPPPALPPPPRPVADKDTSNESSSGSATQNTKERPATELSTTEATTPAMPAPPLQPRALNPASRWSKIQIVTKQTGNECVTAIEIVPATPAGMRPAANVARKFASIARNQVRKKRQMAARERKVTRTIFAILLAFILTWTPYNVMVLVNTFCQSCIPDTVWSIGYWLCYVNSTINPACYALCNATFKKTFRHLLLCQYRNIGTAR
Format: functional

| SMILES | EC50 [nM] |
| --- | --- |
| COc1nc2sc(C(=O)NC3CC3)c(N)c2c(C)c1Cl | 39 |
| CCNC(=O)c1sc2nc(OC)c(Cl)c(C)c2c1N | 200 |

These compounds were tested against T1, Muscarinic acetylcholine receptor M4 (assay: Agonist activity at human recombinant M4 muscarinic acetylcholine receptor assessed as calcium mobilization by FLIPR analysis).
Format: functional

| SMILES | EC50 [nM] |
| --- | --- |
| Cc1nc2sc(C(=O)NCc3ccncc3)c(N)c2c(C)c1Cl | 77 |
| Cc1cc(C)c2c(N)c(C(=O)NCc3ccco3)sc2n1 | 395 |
| Cc1nnc2sc(C(=O)NCc3ccc(-c4ccnc(F)c4)cc3)c(N)c2c1C | 91 |

Continued, values first:

| EC50 [nM] | SMILES |
| --- | --- |
| 1.3 | Cc1cc(C)c2c(N)c(C(=O)NCc3ccccc3)sc2n1 |
| 400 | Cc1cc(C)c2c(N)c(C(=O)NCc3ccc(Cl)cc3)sc2n1 |
| 403 | Cc1cc(C)c2c(N)c(C(=O)NCc3ccc4c(c3)OCO4)sc2n1 |

The compounds below were run against T2, Muscarinic acetylcholine receptor M2 (Homo sapiens, UniProt P08172) (assay: Agonist activity at human M2 receptor).
T2 sequence (P08172 whole entry): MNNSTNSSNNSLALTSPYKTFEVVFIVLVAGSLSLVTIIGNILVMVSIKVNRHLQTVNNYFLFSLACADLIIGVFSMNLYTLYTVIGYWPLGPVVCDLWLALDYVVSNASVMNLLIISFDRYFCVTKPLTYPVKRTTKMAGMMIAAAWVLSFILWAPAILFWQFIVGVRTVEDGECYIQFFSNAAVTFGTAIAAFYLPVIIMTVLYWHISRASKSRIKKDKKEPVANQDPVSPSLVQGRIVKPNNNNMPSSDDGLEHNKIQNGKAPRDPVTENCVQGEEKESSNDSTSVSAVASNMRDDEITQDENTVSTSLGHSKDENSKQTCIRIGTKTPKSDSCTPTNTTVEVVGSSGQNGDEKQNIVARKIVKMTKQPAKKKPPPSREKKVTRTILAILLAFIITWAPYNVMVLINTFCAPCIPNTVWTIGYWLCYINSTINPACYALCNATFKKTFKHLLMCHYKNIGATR
Format: functional

| SMILES | EC50 [nM] |
| --- | --- |
| COC(=O)N1CCC(N2CCC(n3c(=O)n(C)c4ccccc43)CC2)CC1 | 135 |
